This passage reports IC50 results from patent publication US10959986B2, “Inhibitors of indoleamine 2,3-dioxygenase and methods of their use” (BRISTOL-MYERS SQUIBB COMPANY, priority 2018, dated 2021).

pIC50: −log10 of the molar value. A value given as a limit tells only on which side of the number the result lay.

Test [1] has as its target T1, human IDO1 (Homo sapiens, UniProt P14902).
T1 construct: expressed in transfected cells
The test can be described thus: HEK293 cell-based indoleamine 2,3-dioxygenase (IDO) assay. The note with it: HEK293 cells stably expressing human IDO1, 20 hours incubation; read-out: IDO1 HEK Human IC50. On the procedure:
Assessment of Inhibitor Activity in HEK293 Cell-Based Indoleamine 2,3-Dioxygenase (IDO) Assay.
HEK293 cells were transfected with a pCDNA-based mammalian expression vector harboring human IDO1 cDNA (NM 002164.2) by electroporation. They were cultured in medium (DMEM with 10% FBS) containing 1 mg/ml G418 for two weeks. Clones of HEK293 cells that stably expressed human IDO1 protein were selected and expanded for IDO inhibition assay.
The human IDO1/HEK293 cells were seeded at 10,000 cells per 50 μL per well with RPMI/phenol red free media contains 10% FBS in a 384-well black wall clear bottom tissue culture plate (Matrix Technologies LLC) 100 nL of certain concentration of compound was then added to each well using ECHO liquid handling systems. The cells were incubated for 20 hours in 37° C. incubator with 5% CO2.
The compound treatments were stopped by adding trichloroacetic acid (Sigma-Aldrich) to a final concentration at 0.2%. The cell plate was further incubated at 50° C. for 30 minute. The equal volume supernatant (20 μL) and 0.2% (w/v) Ehrlich reagent (4-dimethylaminobenzaldehyde, Sigma-Aldrich) in glacial acetic acid were mixed in a new clear bottom 384-well plate. This plate was then incubated at room temperature for 30 minute. The absorbance at 490 nm was measured on Envision plate reader.
Compound IC50 values were calculated using the counts of 500 nM of a reference standard treatment as one hundred percent inhibition, and counts of no compound but DMSO treatment as zero percent inhibition.

The target of test [2] is T2, indoleamine 2,3-dioxygenase (IDO) (Homo sapiens, UniProt P14902).
T2 construct: media containing IFNγ (#285-IF/CF, R&D Systems) at a final concentration of 25 ng/mL; endogenous in cells; host or cells: HeLa (ATCC CCL-2), induced with IFN-gamma
Kind of test: HeLa cell-based indoleamine 2,3-dioxygenase (IDO) assay. As to conditions: HeLa cells with IFNγ 25 ng/mL, 48 hour incubation, kynurenine production; read-out: IDO Hela IC50 potency class (A < 50, B < 250, C < 2000). On the procedure: Assessment of Inhibitor Activity in HeLa Cell-Based Indoleamine 2,3-Dioxygenase (IDO) Assay.
HeLa (ATCCR CCL-2) cells were obtained from the ATCC® and cultured in Dulbecco's Modified Eagle Medium supplemented with 4.5 g/L glucose, […] L-glutamine and […] (#10-013-CV, Corning), 2 mM L-alanyl-L-glutamine dipeptide (#35050-061, Gibco), 100U/mL penicillin, 100 µg/mL streptomycin (#SV30010, HyClone) and 10% fetal bovine serum (#SH30071.03 HyClone). Cells were maintained in a humidified incubator at 37° C. in 5% CO2.
IDO activity was assessed as a function of kynurenine production as follows: HeLa cells were seeded in a 96-well culture plate at a density of 5,000 cells/well and allowed to equilibrate overnight. After 24 hours, the media was aspirated and replaced with media containing IFNγ (#285-IF/CF, R&D Systems) at a final concentration of 25 ng/mL. A serial dilution of each test compound was added to the cells in a total volume of 200 μL of culture medium. After a further 48 hour incubation, 170 μL of supernatant was transferred from each well to a fresh 96-well plate. 12.1 μL of 6. IN trichloroacetic acid (#T0699, Sigma-Aldrich) was added to each well and mixed, followed by incubation at 65° C. for 20 minutes to hydrolyze N-formylkynurenine, the product of indoleamine 2,3-dioxygenase, to kynurenine. The reaction mixture was then centrifuged for 10 mins at 500×g to sediment the precipitate. 100 μL of the supernatant was transferred from each well to a fresh 96-well plate. 100 μl of 2% (w/v) p-dimethylaminobenzaldehyde (#15647-7, Sigma-Aldrich) in acetic acid (#A6283, Sigma-Aldrich) was added to each well mixed and incubated at room temperature for 20 mins. Kynurenine concentrations were determined by measuring absorbance at 480 nm and calibrating against an L-kynurenine (#K8625, Sigma-Aldrich) standard curve using a SPECTRAMAX® M2e microplate reader (Molecular Devices). The percentage activity at each inhibitor concentration was determined and IC50 values assessed using nonlinear regression.

T1 sequence (P14902 whole entry): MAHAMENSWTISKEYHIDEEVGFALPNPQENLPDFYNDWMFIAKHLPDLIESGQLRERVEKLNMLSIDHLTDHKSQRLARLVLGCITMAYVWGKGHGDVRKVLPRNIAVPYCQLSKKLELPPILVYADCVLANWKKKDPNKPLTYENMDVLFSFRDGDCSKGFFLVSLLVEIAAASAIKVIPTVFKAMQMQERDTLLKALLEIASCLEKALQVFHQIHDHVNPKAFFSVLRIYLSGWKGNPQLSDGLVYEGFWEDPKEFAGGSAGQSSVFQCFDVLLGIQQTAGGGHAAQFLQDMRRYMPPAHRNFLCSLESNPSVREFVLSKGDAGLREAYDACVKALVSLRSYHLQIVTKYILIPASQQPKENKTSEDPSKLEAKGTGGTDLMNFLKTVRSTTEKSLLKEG
T2 sequence (P14902 whole entry): as above

As usually defined, the pIC50 is −log10 of the IC50, conventionally taken in molar units. `CC[C@@H](CC(=O)O)c1ccc([C@H]2CC[C@@H](c3ccccc3)CC2)c(NC(=O)Nc2ccc(C)cc2)c1` (single isomer, unassigned) [Example 2-3, 3-(4-(4-phenylcyclohexyl)-3-(3-(p-tolyl)ureido)phenyl)pentanoic acid]: the pIC50 in test [1] was 9.00; in test [2] it was more than 7.30.

As for `CC[C@@H](CC(=O)O)c1ccc([C@H]2CC[C@@H](c3ccccc3)CC2)c(NC(=O)Nc2ccc(C)cc2)c1` (single isomer, unassigned) [Example 1-4, 3-(4-(4-phenylcyclohexyl)-3-(3-(p-tolyl)ureido)phenyl)pentanoic acid], the pIC50 in test [1] was 8.52; in test [2], more than 7.30. As to `CC[C@@H](CC(=O)O)c1ccc([C@H]2CC[C@@H](c3ccccc3)CC2)c(NC(=O)Nc2ccc(C)cc2)c1` (single isomer, unassigned) [Example 1-1, 3-(4-(4-phenylcyclohexyl)-3-(3-(p-tolyl)ureido)phenyl)pentanoic acid], the pIC50 in test [1] was 6.30. The same measure, in the same setting: under `CC[C@@H](CC(=O)O)c1ccc([C@H]2CC[C@@H](c3ccccc3)CC2)c(NC(=O)Nc2ccc(C)cc2)c1` (single isomer, unassigned) [Example 1-2, 3-(4-(4-phenylcyclohexyl)-3-(3-(p-tolyl)ureido)phenyl)pentanoic acid] stands 5.80.
